Experimental data: ChEMBL document CHEMBL1131916, “Novel series of O-substituted 8-quinolines and 4-benzothiazoles as potent antagonists of the bradykinin B2 receptors” (Bioorg Med Chem Lett, 1999)

Experiments:
B2 bradykinin receptor [1] = molecular target: T1, B2 bradykinin receptor (Cavia porcellus, UniProt O70526); assay: Inhibition of BK-induced (4x10E-8M) contraction of isolated guinea pig ileum (GPI); format: functional, tissue-based
T1 sequence (O70526 whole entry): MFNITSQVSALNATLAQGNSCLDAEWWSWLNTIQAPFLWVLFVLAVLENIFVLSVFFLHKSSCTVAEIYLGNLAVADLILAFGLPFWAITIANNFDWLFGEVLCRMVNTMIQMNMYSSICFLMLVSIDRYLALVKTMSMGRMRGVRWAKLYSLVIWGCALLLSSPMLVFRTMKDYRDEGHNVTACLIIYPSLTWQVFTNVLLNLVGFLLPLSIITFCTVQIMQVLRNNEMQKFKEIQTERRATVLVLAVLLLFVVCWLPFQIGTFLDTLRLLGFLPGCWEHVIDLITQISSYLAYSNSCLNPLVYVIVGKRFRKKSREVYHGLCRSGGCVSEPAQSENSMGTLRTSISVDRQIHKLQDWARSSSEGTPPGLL

B2 bradykinin receptor [2] = molecular target: T1, B2 bradykinin receptor; assay: Inhibition of specific binding of [3H]BK to bradykinin B2 receptors of guinea pig ileum (GPI); format: tissue-based
[3] = tested on: B2 bradykinin receptor, Oryctolagus cuniculus; assay: % Inhibition of BK-induced (4x10E-8M) contraction of rabbit jugular vein (RJV) at 10E-5 M concentration
Oryctolagus cuniculus [4] = species: Oryctolagus cuniculus; assay: Compound was tested for the efficacy in the inhibition of BK-induced (4x10E-8M) contraction of rabbit jugular vein (RJV); format: functional
Oryctolagus cuniculus [5] = species: Oryctolagus cuniculus; assay: Compound was tested for the percent inhibition of BK-induced (4x10E-8M) contraction of rabbit jugular vein (RJV) at 10E-6 M concentration; format: functional

SMILES	EC50 (B2 bradykinin receptor [1]) [nM]	IC50 (B2 bradykinin receptor [2]) [nM]	inhibition [3] [%]	Ki (B2 bradykinin receptor [2]) [nM]	EC50 (Oryctolagus cuniculus [4]) [nM]	Inhibition (Oryctolagus cuniculus [5]) [%]
COC(=O)CCCCC(=O)NCC(=O)N(C)c1ccc(OC)c(COc2cccc3ccc(C)nc23)c1SC	480	47.2	55	–	–	–
Cc1nc2c(OCc3c(Cl)ccc(N(C)C(=O)CNC(=O)/C=C/c4ccco4)c3Cl)cccc2s1	–	29.8	–	3.4	–	–
COc1cccc(/C=C/C(=O)NCC(=O)N(C)c2ccc(Cl)c(COc3cccc4sc(C)nc34)c2Cl)c1	54	10.3	–	1.3	180	–
Cc1nc2c(OCc3c(Cl)ccc(N(C)C(=O)CNC(=O)/C=C/c4ccc(C(F)(F)F)cc4)c3Cl)cccc2s1	100	23	–	2.8	76	–
COc1ccc(N(C)C(=O)CNC(=O)/C=C/c2ccc(C(F)(F)F)cc2)c(Cl)c1COc1cccc2ccc(C)nc12	130	11.5	–	1.3	260	–
C=C/C=C/C(=O)NCC(=O)N(C)c1ccc(Cl)c(COc2cccc3sc(C)nc23)c1Cl	260	26.2	–	3.1	5200	–
Cc1ccc(/C=C/C(=O)NCC(=O)N(C)c2ccc(Cl)c(COc3cccc4scnc34)c2Cl)cc1	1300	1350	17	160	–	–
COc1ccc(N(C)C(=O)CNC(=O)/C=C/c2ccc(NC(C)=O)nc2)c(SC)c1COc1cccc2ccc(C)nc12	59	5.2	95	0.6	–	–
Cc1ccc(/C=C/C(=O)NCC(=O)N(C)c2ccc(Cl)c(COc3cccc4sc(C)nc34)c2Cl)cc1	23	14.2	–	1.8	66	–
COc1c(N(C)C(=O)CNC(=O)/C=C/c2ccc(C(F)(F)F)cc2)ccc(Cl)c1COc1cccc2ccc(C)nc12	55	21.9	–	2.5	28	–
COc1cccc(/C=C/C(=O)NCC(=O)N(C)c2ccc(Cl)c(COc3cccc4ccc(C)nc34)c2C#N)c1	4.1	0.7	78	0.1	–	–
Cc1ccc2cccc(OCc3c(Cl)ccc(N(C)C(=O)CNC(=O)NCCCC(=O)O)c3C#N)c2n1	400	25.7	–	2.9	–	–

Continued, in another order:

EC50 (B2 bradykinin receptor [1]) [nM]	IC50 (B2 bradykinin receptor [2]) [nM]	inhibition [3] [%]	Ki (B2 bradykinin receptor [2]) [nM]	EC50 (Oryctolagus cuniculus [4]) [nM]	SMILES	Inhibition (Oryctolagus cuniculus [5]) [%]
450	53.8	59	–	–	CCNC(=O)NCC(=O)N(C)c1ccc(OC)c(COc2cccc3ccc(C)nc23)c1C#N	–
660	56.9	–	6.3	8700	COc1ccc(/C=C/C(=O)NCC(=O)N(C)c2ccc(SC)c(COc3cccc4ccc(C)nc34)c2SC)cc1	–
220	32.9	82	3.9	–	CCCOc1c(N(C)C(=O)CNC(=O)/C=C/c2ccc(C(F)(F)F)cc2)ccc(OC)c1COc1cccc2ccc(C)nc12	–
290	64.8	–	–	–	CCNC(=O)NCC(=O)N(C)c1ccc(Cl)c(COc2cccc3ccc(C)nc23)c1C#N	–
350	0.9	–	–	–	Cc1ccc2cccc(OCc3c(Cl)ccc(N(C)C(=O)CNC(=O)NCCCCN)c3C#N)c2n1	–
–	11.8	81	1.3	–	Cc1ccc2cccc(OCc3c(C)ccc(N(C)C(=O)CNC(=O)/C=C/c4ccc(C(F)(F)F)cc4)c3C)c2n1	–
–	81.3	68	9.2	–	COc1ccc(N(C)C(=O)CNC(=O)/C=C/c2cccc(C)c2)c(OC)c1COc1cccc2ccc(C)nc12	–
20000	11000	15	1300	–	Cc1ccc(/C=C/C(=O)NCC(=O)N(C)c2ccc(Cl)c(COc3cccc4sc(-c5ccccc5)nc34)c2Cl)cc1	–
56	1.2	82	0.3	–	Cc1ccc2cccc(OCc3c(Cl)ccc(N(C)C(=O)CNC(=O)/C=C/c4ccc(C(F)(F)F)cc4)c3C#N)c2n1	–
–	77.8	–	9.1	–	Cc1nc2c(OCc3c(Cl)ccc(N(C)C(=O)CNC(=O)OCc4ccccc4)c3Cl)cccc2s1	–
1100	393	–	45.4	–	COc1c(N(C)C(=O)CNC(=O)/C=C/c2ccc(C(F)(F)F)cc2)ccc(SC)c1COc1cccc2ccc(C)nc12	41
